In data set [1] the test system is anthelmintic-resistant isolate of Haemonchus contortus. Put plainly: Method B: screen against anthelmintic-resistant (benzimidazole-resistant) isolate of Haemonchus contortus. The following applies: benzimidazole-resistant H. contortus isolate.
From the text: The conditions described in method A were used against an isolate of H. contortus found to be functionally resistant against the benzimidazole class of anthelmintics (e.g. 127-fold resistance to thiabendazole).
For data set [2], the system named is Haemonchus contortus. Briefly: Method A: Haemonchus contortus L1 larval development/motility screen in microtitre plate. It is filed as cell-based. As to conditions: 96 h, read-out: motility inhibition.
The subject of data set [3] is Haemonchus contortus. Put plainly: Method E: Haemonchus contortus in vivo in Mongolian jirds. The following applies: oral gavage, 5 mg/kg, necropsy 3 days after treatment. The protocol: Method to test activity of compounds against Haemonchus contortus in vivo in Mongolian jirds (Meriones unguiculatus).
(§1) Mongolian jirds, at least five weeks old, that have been immunosuppressed were artificially infected with ensheathed Haemonchus contortus third instar larvae. Six days after infection, the jirds were treated by oral gavage with the test compounds, dissolved in a mixture of DMSO/corn oil, at doses of 5 mg/kg. Jirds treated only with the placebo (DMSO/corn oil carrier) served as controls. On day 9 (3 days after treatment) the jirds were euthanized and necropsied for recovery of parasites from the stomach. Efficacy was calculated as the average % reduction in the number of worms in each test group compared with the average number of worms from the control group. Compound 6 provided a 100% reduction in nematode infestation in Mongolian jirds treated by oral gavage with the test article at a dose of 5 mg/kg.

Data set [4] concerns Trichostrongylus colubriformis. Briefly: Method F: Trichostrongylus colubriformis in vivo in Mongolian jirds. The following applies: oral gavage, 5 mg/kg, necropsy 3 days after treatment. The protocol:
as §1, with “Method to test activity of compounds against Trichostrongylus colubriformis in vivo in Mongolian jirds (Meriones unguiculatus). Mongolian jirds,” for “Mongolian jirds,”, “with ensheathed Trichostrongylus colubriformis third instar” for “with ensheathed Haemonchus contortus third instar”, “doses of […]. Jirds” for “doses of 5 mg/kg. Jirds”, “provided a 99% reduction in” for “provided a 100% reduction in”

The conditions of data set [5]: human, Caco-2, pH 6.5.
Method: Permeability of Compounds.
An in vitro model utilizing Caco-2/TC7 cells is employed to assess the permeability characteristics of new chemical entities (NCEs).
The permeability studies were performed under standard conditions in the apical to basolateral (A→B) direction with a pH gradient and a BSA gradient (standard apical medium (0.5% BSA at pH 6.5)/standard basal medium (5% BSA at pH 7.4)); conditions that most closely reflect the conditions in the in vivo situation. Samples were deproteinized by the addition of 400 μl acetonitrile to 200 μl sample, followed by a 20-minute centrifugation at 1730 g. Compound solubilisation: compound solutions at final concentrations of 20 μM were prepared following dilutions of stock solutions (starting from 10 mM in DMSO) in HBSS. Final concentration of DMSO was adjusted to 1%. Analytical conditions: Supernatants recovered following centrifugation were analysed by LC/MS/MS using a reverse phase column and the mobile phases delivered at 0.3 ml/minute in a gradient: water (A) and acetonitrile (B) (each with 0.1% formic acid).
Every experiment (n) represents the mean of 3 filters per experiment.
Data set [6] concerns microfilaria of Dirofilaria immitis. Put plainly: Method C: microfilaria of Dirofilaria immitis motility screen. It counts as cell-based. The following applies: read-out: inhibition of the microfilaria's motility.

Like-named read-outs stand apart in the source and are kept apart here.

In the case of `c1ccc2[nH]c(-c3cscn3)nc2c1` [thiabendazole], in data set [1], the “resistance of the isolate to thiabendazole” value turned out to be 127 fold.

On to `N#Cc1ccc(NC2CCC(Oc3cncc(N4CCN(c5ccc(C(F)(F)F)cn5)CC4)c3)CC2)cc1C(F)(F)F` (centres unmarked) [Compound 6, 4-[[4-[(5-[4-[5-(trifluoromethyl)pyridin-2-yl]piperazin-1-yl]pyridin-3-yl)oxy]cyclohexyl]amino]-2-(trifluoromethyl)benzonitrile], for which the inhibition at 5 µM in the data set on Haemonchus contortus [2] was not below 90%. The “reduction in nematode infestation” value with Haemonchus contortus [3] turned out to be 100%; in data set [4], 99%. Besides, in data set [5], the Papp A→B at 20 μM is 0.64 ×10⁻⁶ cm/s.

`O=C(CC1CCCCC1)N1CCN(c2cc(O[C@H]3CC[C@H](Nc4ccc([N+](=O)[O-])c(C(F)(F)F)c4)CC3)ccn2)CC1` [Compound 14]: the inhibition at 5 µM in the data set on Haemonchus contortus [2] was not below 90%. Besides, the inhibition at 10 µM in data set [6] (24 h) was not below 90%. In addition, the Papp A→B at 20 μM in data set [5] was found to be 2.28 ×10⁻⁶ cm/s.

As for `CCCOC(=O)N1CCN(c2cncc(O[C@H]3CC[C@H](Nc4ccc([N+](=O)[O-])c(C(F)(F)F)c4)CC3)c2)CC1` [Compound 21], the inhibition at 5 µM with Haemonchus contortus [2] was not below 90%. In data set [6] (24 h), the inhibition at 5 ppm was not below 90%. In data set [5], this compound showed a Papp A→B at 20 μM of 3.45 ×10⁻⁶ cm/s.

Regarding `CC(C)(C)OC(=O)N1CCN(c2ccnc(O[C@H]3CC[C@H](Nc4ccc([N+](=O)[O-])c(C(F)(F)F)c4)CC3)c2)CC1` [Compound 13], in the data set with Haemonchus contortus [2], the inhibition at 5 µM was not below 90%. In addition, the inhibition at 5 ppm in data set [6] (24 h) was not below 90%. In addition, in data set [5], the Papp A→B at 20 μM came to 0.78 ×10⁻⁶ cm/s.

`O=C(Cc1ccc(F)cc1)N1CCN(c2cncc(O[C@H]3CC[C@H](Nc4ccc([N+](=O)[O-])c(C(F)(F)F)c4)CC3)c2)CC1` [Compound 22]: the inhibition at 5 µM with Haemonchus contortus [2] was not below 90%. For the same compound, in data set [6] (10 μM, 24 hours), the inhibition at 10 µM is not below 90%. In data set [5], this compound yielded an apparent permeability from apical to basolateral (Papp A→B) at 20 μM of 1.57 ×10⁻⁶ cm/s.

For the compound `CC(C)(C)OC(=O)N1CCN(c2cc(O[C@H]3CC[C@H](Nc4ccc([N+](=O)[O-])c(C(F)(F)F)c4)CC3)ccn2)CC1` [Compound 34], the inhibition at 5 µM in the data set with Haemonchus contortus [2] is not below 90%. In data set [6] (24 h), the inhibition at 5 ppm was not below 90%. This compound also returned a Papp A→B at 20 μM in data set [5] of 1.77 ×10⁻⁶ cm/s.

For the compound `O=C(Cc1ccc(F)cc1)N1CCN(c2ccnc(O[C@H]3CC[C@H](Nc4ccc([N+](=O)[O-])c(C(F)(F)F)c4)CC3)c2)CC1` [Compound 23], the inhibition at 5 µM in the data set with Haemonchus contortus [2] was not below 90%. In addition, the inhibition at 10 µM in data set [6] (24 h) is not below 90%. The compound further registered a Papp A→B at 20 μM in data set [5] of 1.09 ×10⁻⁶ cm/s.

Regarding `CCCCC(=O)N1CCN(c2ccnc(O[C@H]3CC[C@H](Nc4ccc([N+](=O)[O-])c(C(F)(F)F)c4)CC3)c2)CC1` [Compound 17], the inhibition at 5 µM with Haemonchus contortus [2] was not below 90%. Further, the inhibition at 5 ppm in data set [6] (24 h) is not below 90%. The same compound showed a Papp A→B at 20 μM in data set [5] of 3.99 ×10⁻⁶ cm/s.
